Activity calls are given as the source filed them. No cut-off for these calls is given here. Bounds are passed on as bounds.

The record followed here is ChEMBL document CHEMBL1126547, “Cardioselective anti-ischemic ATP-sensitive potassium channel openers” (J Med Chem, 1993).

Series [1] is filed under the species Rattus norvegicus. The series is described as follows: Anti-ischemic potency determined as concentration required for increase in time to contracture in globally ischemic rat hearts. Format: functional.
The species named for series [2] is Rattus norvegicus. The series is described as follows: Vasorelaxant potency determined by inhibition of methoxamine-contracted rat aorta. Format: functional.
A short description of series [3]: Ratio between EC25 and IC50 values was determined.
Series [4] is described as follows: Plasma half-life was determined in rats. The conditions noted are these: rat, read-out: Elimination half-life (converted). Format: ADME, organism-based.
The nature of series [5]: Oral bioavailability in rat. Format: ADME, organism-based. Conditions: in vivo.
For series [6], the species on record is Rattus norvegicus. The series is described as follows: Anti-ischemic potency determined as concentration required for increase in time to contracture in globally ischemic rat hearts 10 uM; No significant activity. The series is classed as functional.

For the molecule `CC1(C)Oc2ccc(C#N)cc2[C@@H](/N=C(\NC#N)Nc2ccccc2)[C@@H]1O` (stereo in doubt; 13), the EC25 (usually the concentration at which the effect reaches the 25% level) in series [1] is greater than 30 µM. Also, the half-maximal inhibitory concentration (IC50) (as a rule, the concentration that gives 50% inhibition) in series [2] was 4.2 µM.

In series [1], `CC1(C)Oc2ccc(C#N)cc2C(N2CCCC2=O)C1O` (stereo unspecified) [CROMAKALIM] returned an EC25 of 8.9 µM. In series [3], the Ratio amounted to 278. Moreover, the half-maximal inhibitory concentration (IC50) in series [2] (Rattus norvegicus, Aorta) was 0.032 µM.

Molecule `CC1(C)Oc2ccc(C#N)cc2[C@@H](/N=C(\NC#N)Nc2ccccc2)[C@@H]1O` (stereo in doubt; 12) [listing 1 of 2 here] displayed a concentration for an effect of 25% (EC25) in series [1] of 6.1 µM. Moreover, the half-life (usually the time in which the quantity being followed falls by half) in series [4] is 1.8 h. The same molecule returned an IC50 in series [2] of 1.3 µM. In addition, the bioavailability (commonly dose-corrected exposure relative to a reference, in per cent) in series [5] was 70%.

In turn, `CC1(C)Oc2ccc(C#N)cc2[C@@H](/N=C(\NC#N)Nc2ccccc2)[C@@H]1O` (stereo in doubt; 5) [listing 1 of 2 here] registered an EC25 in series [1] of 11 µM.

The molecule `CC1(C)Oc2ccc([N+](=O)[O-])cc2[C@@H](/N=C(\NC#N)Nc2ccccc2)[C@@H]1O` came in with an EC25 in series [1] of 7.2 µM. For the same molecule, the Ratio in series [3] amounted to 3.6. For the same molecule, half-maximal inhibition in series [2] (Rattus norvegicus, Aorta) (IC50) required 2 µM.

`CC1(C)Oc2ccc(C#N)cc2[C@@H](/N=C(\NC#N)Nc2ccc(C(F)(F)F)cc2)[C@@H]1O` came in with an EC25 in series [1] of 13.4 µM. Further, the Ratio in series [3] is 1.7. The molecule also showed an IC50 in series [2] (Rattus norvegicus, Aorta) of 8.1 µM.

Consider `CC1(C)Oc2ccc(C#N)cc2[C@@H](/N=C(\NC#N)Nc2ccc(Cl)cc2)[C@@H]1O`, for which the 25% effect concentration (EC25) in series [1] worked out at 2.5 µM. For the same molecule, the Ratio in series [3] came to 1.4. In series [2] (Rattus norvegicus, Aorta), this molecule returned an IC50 of 1.8 µM.

Turning to `CC1(C)Oc2ccc(C#N)cc2[C@@H](/N=C(\S)Nc2ccccc2)[C@@H]1O`, in series [1], the EC25 worked out at 7.7 µM. Also, the Ratio in series [3] stood at 4.5. Also, in series [2] (Rattus norvegicus, Aorta), the half-maximal inhibitory concentration (IC50) came to 1.7 µM.

As for `CC1(C)Oc2ccccc2[C@@H](/N=C(\NC#N)Nc2ccccc2)[C@@H]1O`, the EC25 result in series [6] was “inactive”. The molecule also came in with a 50% inhibitory concentration (IC50) in series [2] (Rattus norvegicus, Aorta) of 72.7 µM.

With `CC1(C)Oc2ccc(C#N)cc2[C@@H](NC(=O)Nc2ccccc2)[C@@H]1O`, in series [1], the EC25 worked out at 5.1 µM.

As to `CC1(C)Oc2ccc(C#N)cc2[C@@H](/N=C(\NC#N)Nc2ccccc2)[C@@H]1O` (stereo in doubt; 12) [listing 2 of 2 here], in series [3], the Ratio worked out at 4.7.

The molecule `CCC(C)(C)/N=C(\NC#N)N[C@@H]1c2cc(C#N)ccc2OC(C)(C)[C@H]1O` showed a concentration for an effect of 25% (EC25) in series [1] of 20.1 µM. In addition, the Ratio in series [3] came to 0.7.

In series [1], `CC1(C)Oc2ccc(C#N)cc2[C@@H](/N=C(\NC#N)Nc2ccc(F)cc2)[C@@H]1O` came in with an EC25 of 3.5 µM. The Ratio in series [3] was determined as 2.5. Also, the half-life in series [4] was 1.7 h. In series [2] (Rattus norvegicus, Aorta), this molecule showed an IC50 of 1.4 µM. The bioavailability in series [5] is 64%.

In turn, `CC1(C)Oc2ccc(C#N)cc2[C@@H](/N=C(\NC#N)Nc2ccc(O)cc2)[C@@H]1O` came in with a 25% effect concentration (EC25) in series [1] of 33.4 µM. The Ratio in series [3] was found to be 15.2. Half-maximal inhibition in series [2] (Rattus norvegicus, Aorta) (IC50) required 2.2 µM.

The molecule `C#Cc1ccc2c(c1)[C@@H](/N=C(\NC#N)Nc1ccccc1)[C@H](O)C(C)(C)O2` showed a concentration for an effect of 25% (EC25) in series [1] greater than 30 µM. Moreover, in series [2] (Rattus norvegicus, Aorta), the IC50 worked out at 5.4 µM.

For `CC1(C)Oc2ccc(C#N)cc2[C@@H](/N=C(\NC#N)Nc2ccccc2)[C@@H]1O` (stereo in doubt; 5) [listing 2 of 2 here], in series [3], the Ratio was 7.9.

For `CC1(C)Oc2ccc(C#N)cc2[C@@H](NC(=NC#N)Nc2ccc(Cl)cc2)[C@@H]1O`, the half-life in series [4] was 7 h. In series [5], this molecule had a bioavailability of 61%.
